Source: the NIST ThermoML archive (doi:10.1021/je800439e)
Where “and” joins values, the source holds several entries; their conditions need not be identical. Equal values may be shown once.

How the values were obtained:
[1] = 101 kPa, Liquid
[2] = xn = mol fraction of the nth substance listed; settings: 101 kPa, Liquid

Cc1cc(C)cc(C)c1 [1,3,5-trimethylbenzene]
[1]
Settings | viscosity [mPa·s]
278.15 K | 0.85
284.15 K | 0.8
290.15 K | 0.75
296.15 K | 0.63
302.15 K | 0.57
308.15 K | 0.53
314.15 K | 0.49
320.15 K | 0.46
325.15 K | 0.44
330.15 K | 0.41
335.15 K | 0.4
340.15 K | 0.39
345.15 K | 0.35
350.15 K | 0.34

CCCCCc1ccc(C2CCC(CCC)CC2)cc1 (stereo unspecified) [1-pentyl-4-(4-propylcyclohexyl)-benzene]
[1]
Settings | viscosity [mPa·s]
278.15 K | 27.74
284.15 K | 21.48
290.15 K | 16.95
296.15 K | 13.5
302.15 K | 11.09
308.15 K | 9.21
314.15 K | 7.64
320.15 K | 6.58
325.15 K | 6.01
330.15 K | 5.19
335.15 K | 4.57
340.15 K | 4.13
345.15 K | 3.68
350.15 K | 3.29

Cc1cc(C)cc(C)c1 [1,3,5-trimethylbenzene] + Cc1c(C)c2c(c(C)c1O)CCC(C)(CCCC(C)CCCC(C)CCCC(C)C)O2
[2], x2 = 0
Settings | viscosity [mPa·s]
278.15 K | 0.85
284.15 K | 0.8
290.15 K | 0.75
296.15 K | 0.63
302.15 K | 0.57
308.15 K | 0.53
314.15 K | 0.49
320.15 K | 0.46
325.15 K | 0.44
330.15 K | 0.41
335.15 K | 0.4
340.15 K | 0.39
345.15 K | 0.35
350.15 K | 0.34

Cc1c(C)c2c(c(C)c1O)CCC(C)(CCCC(C)CCCC(C)CCCC(C)C)O2 (racemic) [dl-α-tocopherol]
[1]
Settings | viscosity
278.15 K | 37128 mPa·s
284.15 K | 15242 mPa·s
290.15 K | 6380 mPa·s and 6380.1 mPa·s
296.15 K | 3017.5 mPa·s
302.15 K | 1531 mPa·s
308.15 K | 814.81 mPa·s
314.15 K | 454.58 mPa·s
320.15 K | 283.56 mPa·s
325.15 K | 187.51 mPa·s
330.15 K | 129.2 mPa·s
335.15 K | 92.65 mPa·s
340.15 K | 67.32 mPa·s
345.15 K | 49.98 mPa·s
350.15 K | 37.4 mPa·s

Cc1c(C)c2c(c(C)c1O)CCC(C)(CCCC(C)CCCC(C)CCCC(C)C)O2 (stereo not drawn) [dl-α-tocopherol] + Cc1cc(C)cc(C)c1
viscosity [mPa·s], [2]
Settings | x1 = 0.2025 | x1 = 0.4036 | x1 = 0.5972 | x1 = 0.7955 | x1 = 1
278.15 K | 6.85 | 148.08 | 1253.6 | 5944.7 | 37128
284.15 K | 5.55 | 92.32 | 658.51 | 3037.6 | 15242
290.15 K | 4.6 | 56.98 | 357.26 | 1533.2 | 6380.1
296.15 K | 3.88 | 38 | 210.82 | 819.67 | 3017.5
302.15 K | 3.24 | 26.65 | 130.99 | 477.36 | 1531
308.15 K | 2.94 | 19.06 | 83.96 | 276.12 | 814.81
314.15 K | 2.39 | 14.43 | 55.52 | 173.98 | 454.58
320.15 K | 2.14 | 11.42 | 40.57 | 116 | 283.56
325.15 K | 1.96 | 9.28 | 30.55 | 82.01 | 187.51
330.15 K | 1.83 | 7.75 | 23.73 | 60.1 | 129.2
335.15 K | 1.72 | 6.56 | 18.89 | 45.63 | 92.65
340.15 K | 1.65 | 5.59 | 15.33 | 34.46 | 67.32
345.15 K | 1.52 | 4.81 | 12.33 | 26.47 | 49.98
350.15 K | 1.37 | 4.25 | 10.5 | 21.44 | 37.4
